Assay results: publication PMC6806071 (2019)
Blank lines part the entries; values can stand above or below the compound they belong to.

Assays:
[1] = system: 56-mer VTD3 aptamer (DNA, aptamer) AGCAGCACAGAGGTCATGGGGGGTGTGACTTTGGTGTGCCTATGCGTGCTACGGAA; test: fluorescence enhancement; CD; conditions: 0.1 M NaCl; 5% ethanol; SYBR Green I 5 µM
[2] = system: 56-mer VTD3 aptamer (DNA, aptamer) AGCAGCACAGAGGTCATGGGGGGTGTGACTTTGGTGTGCCTATGCGTGCTACGGAA; test: curcumin fluorescence displacement; conditions: 0.1 mM NaCl; 5% ethanol; aptamer 100 nM, curcumin 0.6 µM displaced; up to 1 µM
[3] = system: Random ssDNA (70-mer) (DNA, single strand) AGGCCTAAGGGCATAATTAGCTCGAGCTCGAAAGGGGTTATATGATGATTTGAATTCATGGGGCCCGACT; test: curcumin fluorescence displacement; conditions: 0.1 mM NaCl, 5% ethanol, curcumin 0.6 µM, no sensor response
[4] = system: 56-mer VTD3 aptamer (DNA, aptamer) AGCAGCACAGAGGTCATGGGGGGTGTGACTTTGGTGTGCCTATGCGTGCTACGGAA; test: CD; curcumin fluorescence displacement; conditions: 0.1 mM NaCl; CD: aptamer 0.8 µM, VTD3 20 µM; curcumin displaced
[5] = system: 75-mer BPA aptamer (DNA, aptamer) ATACGAGCTTGTTCAATAGGAAATCACGATTAGGTCCTCCGTCTGTGTGCGGTTGTGGTGATAGTAAGAGCAATC; test: fluorescence enhancement; conditions: 0.1 mM NaCl; aptamer 100 nM, curcumin 0.6 µM
[6] = system: 56-mer VTD3 aptamer (DNA, aptamer) AGCAGCACAGAGGTCATGGGGGGTGTGACTTTGGTGTGCCTATGCGTGCTACGGAA; test: fluorescence titration, Langmuir fit; conditions: 0.1 mM NaCl (methods: 0.1 M NaCl); 5% ethanol, 5 and 25 °C; curcumin 0.6 µM; b27 prints 0.7 µM, b25 0.7 nM
[7] = system: 75-mer BPA aptamer (DNA, aptamer) ATACGAGCTTGTTCAATAGGAAATCACGATTAGGTCCTCCGTCTGTGTGCGGTTGTGGTGATAGTAAGAGCAATC; test: curcumin fluorescence displacement; conditions: 0.1 mM NaCl; 5% ethanol; aptamer 100 nM, curcumin 0.6 µM displaced

SMILES: CCCN(CCCN(C)C)c1cc(C=C2Sc3ccccc3N2C)c2ccccc2[n+]1-c1ccccc1
binding [1]: yes

SMILES: C[C@]12C=CC(=O)C=C1CC[C@@H]1[C@@H]2C(=O)C[C@@]2(C)[C@H]1CC[C@]2(O)C(=O)CO
binding [2]: no

SMILES: CC(=O)[C@H]1CC[C@H]2[C@@H]3CCC4=CC(=O)CC[C@]4(C)[C@H]3CC[C@]12C
binding [2]: no

SMILES: COc1cc(/C=C/C(=O)CC(=O)/C=C/c2ccc(O)c(OC)c2)ccc1O
binding [5]: yes
KD [6]: 0.7 nM

SMILES: CC(C)(c1ccc(O)cc1)c1ccc(O)cc1
binding [7]: yes
binding [3]: no

Now from value to compound:

binding ([3]; VTD3 up to 1 µM): no
binding [4]: yes
SMILES: C=C1CC[C@H](O)C/C1=C/C=C1\CCC[C@]2(C)[C@@H]([C@H](C)CCCC(C)C)CC[C@@H]12

binding [2]: no
SMILES: C=C1CC[C@H](O)C/C1=C/C=C1\CCC[C@]2(C)[C@@H]([C@H](C)/C=C/[C@H](C)C(C)C)CC[C@@H]12

binding [2]: no
SMILES: C[C@]12CC[C@@H]3c4ccc(O)cc4CC[C@H]3[C@@H]1CC[C@@H]2O
